What was measured:
[1] = system: guinea-pig papillary muscle; assay: Positive inotropic effect in paced cardiac muscle; type: cell-based; settings: Cavia porcellus; right ventricular papillary muscle paced at 1 Hz, 37° C.
Protocol: Positive Inotropic Effect in Paced Cardiac Muscle
Four weeks old guinea-pigs weighing about 350 g were used. In the experiments the right ventricular papillary muscle of the heart was mounted for measurement of isometric tension in organ bath containing modified Tyrode solution (37° C.) bubbled with 95% O2, 5% CO2. The composition of the modified Tyrode solution was (mM): NaCl 135; MgCl2.6H2O 1; KCl 5; CaCl2.2H2O 2; NaHCO3 15; Na2HPO4.2H2O 1; glucose 10; pH 7.3-7.4. The volume of the open horizontal chamber was 1 ml and flow rate of the superfusion solution running through the chamber was 5 ml/min. Papillary muscle (<1 mm in diameter) was stretched horizontally between force-displacement transducer (FT 0.3 and a needle fixed to the bottom of the chamber. An initial stretching tension of 300 mg was applied to the muscle which was electrically stimulated (Stimulator model SEC 48 F, Grass Instruments) via platinum field electrodes at 1 Hz with rectangular pulses (duration 4 ms). The stimulation occurred at twice threshold voltage in order to achieve simultaneous activation of all myocytes in the […]. A force-displacement transducer was connected to a polygraph D.C. driver amplifier (model 7 DA, Grass Instruments) and a programmable scanner (model SI 5010, Tetronix). […]

[2] = system: skinned cardiac fiber (left ventricular papillary muscle); assay: Calcium sensitizing effect in skinned cardiac fiber; type: cell-based, guinea-pig; settings: pCa 5.6; concentration not given
Text: Calcium Sensitizing Effect in Skinned Cardiac Fiber
Left ventricular papillary muscle of the guinea-pig was dissected and rinsed in ice-cold Tyrode solution. Thereafter the papillary muscle was immersed into a solution containing (mM): Potassium acetate 74.7, EGTA 10, MgSO4 5.4, ATP-Na2 4, DTE 1, MOPS 20, pH 7.0 (by 1 M KOH). Subsequently, the papillary muscle was sonicated at 10 Watt for 60 sec in this ice-cold solution. The distance between ultrasound probe and the papillary muscle was 10 mm. The fibers (<200 μm in diameter) were dissected from surface of sonicated papillary muscles. Moreover, the sonicated and dissected fibers were kept for 30 min in a “skinning” solution (ice-cold) containing saponin (250 μg/ml) in addition to the other constituents. Continuous magnetic stirring was used during this treatment.
The fibers which were further dissected (<100 μm in diameter) were then mounted horizontally with a glue (cellulose acetate in acetone) between a steel-rod extension of isometric force transducer (AME-801 strain gauge, Horten Electronics, Norway) and a glass rod attached to a micro-manipulator. The force transducer was connected to an amplifier. The fibers were kept in the “relaxing” solution containing (mM): imidazole 30, ATP-Na2 10, NaN3 5, EGTA 5, MgCl2 12.5, and 350 U creatinkinase. The temperature of the solution was 22° C. and the pH was set to 6.7 by 1 M KOH. […]

EC50 [1] | SMILES | Calcium sensitizing effect in skinned fiber: Change in force % of control [2]
2000 nM | Cc1[nH]c(=O)c(C#N)cc1-c1ccncc1 [Milrinone, milrinone] | ineffective
100 nM | CC(=O)Nc1ccc(C2=NNC(=O)C[C@H]2C)cc1 [Compound A, (R)-N-[4-(1,4,5,6-tetrahydro-4-methyl-6-oxo-3-pyridazinyl)phenyl]acetamide] | –
